The values that follow are results of earlier work, collected in patent US4486414A, “Dolastatins A and B cell growth inhibitory substances” (Arizona Board of Reagents, priority 1983, dated 1984).

Data set [1] concerns murine P388 lymphocytic leukemia. The following applies: intraperitoneal doses of 11 μg/kg/day; cited from earlier work.
A further data set concerns murine B16 melanoma. As to conditions: intraperitoneal doses of 11 μg/kg/day; cited from earlier work.

For the substance dolastatin 1, the life extension in data set [1] is listed as 88%. Moreover, the curative response in the data set on murine B16 melanoma is given as 30%.
